From paper PMC5274652, “Antagonizing Retinoic Acid Receptors Increases Myeloid Cell Production by Cultured Human Hematopoietic Stem Cells” (Archivum Immunologiae et Therapiae Experimentalis, 2016)

Columns and labels:
human RARβ = biological target: T1, human RARβ (Homo sapiens, UniProt P10826); assay: Competition with [3H]-ATRA binding, nuclear extracts of Sf21 cells expressing RARβ; details: nuclear extracts of baculovirus-infected Sf21 cells, read-out: Binding affinity ED50, RARβ
T1 construct: made in house
T1 sequence (P10826 1-455): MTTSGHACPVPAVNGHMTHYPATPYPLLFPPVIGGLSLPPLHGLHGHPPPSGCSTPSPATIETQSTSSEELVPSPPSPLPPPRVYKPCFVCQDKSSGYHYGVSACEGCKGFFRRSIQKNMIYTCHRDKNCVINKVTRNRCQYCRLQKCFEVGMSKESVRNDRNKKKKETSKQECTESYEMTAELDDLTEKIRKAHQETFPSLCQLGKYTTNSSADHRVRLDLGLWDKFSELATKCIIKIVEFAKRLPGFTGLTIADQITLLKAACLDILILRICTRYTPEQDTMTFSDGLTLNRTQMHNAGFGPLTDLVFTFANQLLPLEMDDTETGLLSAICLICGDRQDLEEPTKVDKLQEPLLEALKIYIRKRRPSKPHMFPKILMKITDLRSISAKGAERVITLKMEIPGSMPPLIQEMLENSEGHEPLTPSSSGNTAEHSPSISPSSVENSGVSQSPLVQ

human RARγ = biological target: T2, human RARγ (Homo sapiens, UniProt P13631); assay: Competition with [3H]-ATRA binding, nuclear extracts of Sf21 cells expressing RARγ; details: nuclear extracts of baculovirus-infected Sf21 cells, read-out: Binding affinity ED50, RARγ
T2 construct: made in house
T2 sequence (P13631 1-454): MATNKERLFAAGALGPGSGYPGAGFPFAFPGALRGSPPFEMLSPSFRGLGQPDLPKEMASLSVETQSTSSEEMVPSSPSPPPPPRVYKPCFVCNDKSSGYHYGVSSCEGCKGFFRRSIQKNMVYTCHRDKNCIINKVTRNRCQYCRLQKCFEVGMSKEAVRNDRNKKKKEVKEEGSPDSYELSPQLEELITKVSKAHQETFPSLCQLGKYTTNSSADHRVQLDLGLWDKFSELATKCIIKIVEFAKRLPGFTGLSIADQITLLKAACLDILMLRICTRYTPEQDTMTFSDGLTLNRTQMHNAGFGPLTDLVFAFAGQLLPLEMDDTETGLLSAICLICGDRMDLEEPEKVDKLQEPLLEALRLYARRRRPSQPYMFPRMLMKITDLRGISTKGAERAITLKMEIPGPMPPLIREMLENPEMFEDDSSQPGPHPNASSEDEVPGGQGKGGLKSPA

NB-4 cells = assay: Differentiation of NB-4 cells (CD11b/CD14 flow cytometry); assay type: cell-based, human; details: 96 h
Method: NB-4 and KG1 cells were obtained from the German Resource Center for Biological Material (DSMZ GmbH, Braunschweig, Germany). The cells were grown in RPMI-1640 medium supplemented with 10 % fetal bovine serum (FBS), 100 U/ml penicillin, and 100 µg/ml streptomycin (Sigma, St Louis, MO, USA). Cells were grown at 37 °C in 5 % CO2.
The expression of differentiation markers at the cell surface was determined by flow cytometry. Differentiation of NB-4 and KG1 cells was measured by staining using the monoclonal antibodies CD11b-FITC and CD14-PE and appropriately labeled isotype controls (all from ImmunoTools, Friesoythe, Germany). Differentiation of human CD34^+ve cells was measured by triple-color staining using various cocktails of phycoerythrin-, fluorescein isothyocyanate-, and PerCP-monoclonal antibodies (from Becton–Dickinson, San Jose, CA, USA). The markers used to identify cell populations were as follows: CD45^+ve leukocytes; CD34^+ve/CD133^+ve HSCs; CD33^+ve/CD13^+ve immature myeloid; CD117^+ve myeloblasts and promyelocytes; CD11b^+ve/CD15^+ve mature myeloid; CD11b^+ve/CD65^+ve neutrophils; CD11b^+ve/CD14^+ve monocytes; glycophorin^+ve A erythroid cells; CD61^+ve megakaryoblasts and platelets; CD2^+ve/CD5^+ve/CD7^+ve T cells and NK cells; CD56^+ve NK cells; CD19^+ve/CD20^+ve B cells; and CD10^+ve B lymphocyte progenitors; and present on mature neutrophils and DR^+ve progenitors and present on mature monocytes. The cells were stained with 1 µl of the fluorescently labeled antibody (or the appropriate control immunoglobulin) for 1 h on ice. Next, they were washed with ice-cold phosphate-buffered saline (PBS) and suspended in 0.5 ml PBS supplemented with 0.1 % bovine serum albumin (Sigma, St Louis, MO, USA) prior to analysis on FACS Calibur flow cytometer (Becton–Dickinson, San Jose, CA, USA). The acquisition parameters were set for an isotype control. Cells were analyzed using a FACSCalibur, and data analysis was performed using the CellQuest Pro software (Becton–Dickinson, San Jose, CA, USA).

mice = details: cited from earlier work

## CCc1ccc(C2=CC(C)(C)Sc3ccc(C#Cc4ccc(C(=O)O)cc4)cc32)cc1 [AGN194310]
Human RARβ
  IC50: 5 nM
Human RARγ
  IC50: 2 nM
NB-4 cells; 100 nM with 10 nM 1,25D, compared with 1,25D alone
  effect on differentiation of NB-4 cells: did not have an appreciable effect
NB-4 cells; 100 nM, used alone
  effect on differentiation of NB-4 cells: no effect
mice; G-CSFR knockout mice, ref Chee et al. 2013
  expansion of granulopoiesis in knockout mice lacking the receptor for G-CSF: not seen
mice; mice, ref Walkley et al. 2002, Chee et al. 2013
  effect on myeloid cells after administration to mice: increases in myeloid progenitor cells and mature myeloid cells
